Data published in patent US11331283B2, “Pharmaceutical compositions comprising cinacalcet hydrochloride and one or more binders” (UNICHEM LABORATORIES LTD, priority 2017, dated 2022).

Assay: Particle size distribution of micronized cinacalcet hydrochloride by Malvern Mastersizer
Assay type: physicochemical
Details: particle size after jet milling
Experimental: Micronization of cinacalcet hydrochloride was carried out by Jet Milling. Particle size of micronized cinacalcet hydrochloride was measured with Malvern Mastersizer.

`C[C@@H](NCCCc1cccc(C(F)(F)F)c1)c1cccc2ccccc12.Cl` [Batch No 60002, N-[1-(R)-(−)-(1-naphthyl)ethyl]-3-[3(trifluoromethyl)phenyl]-1-aminopropane hydrochloride] showed a D10 of 4.06 μm, a D50 of 9.58 μm and a D90 of 18.8 μm.

With `C[C@@H](NCCCc1cccc(C(F)(F)F)c1)c1cccc2ccccc12.Cl` [Batch No 70001, N-[1-(R)-(−)-(1-naphthyl)ethyl]-3-[3(trifluoromethyl)phenyl]-1-aminopropane hydrochloride] the D10 was 2.66 μm, the D50 was 6.55 μm and the D90 was 13.4 μm.

`C[C@@H](NCCCc1cccc(C(F)(F)F)c1)c1cccc2ccccc12.Cl` [Batch No 70002, N-[1-(R)-(−)-(1-naphthyl)ethyl]-3-[3(trifluoromethyl)phenyl]-1-aminopropane hydrochloride] gave a D10 of 2.35 μm, a D50 of 6.81 μm and a D90 of 15.4 μm.

With `C[C@@H](NCCCc1cccc(C(F)(F)F)c1)c1cccc2ccccc12.Cl` [Micronized cinacalcet hydrochloride, N-[1-(R)-(−)-(1-naphthyl)ethyl]-3-[3(trifluoromethyl)phenyl]-1-aminopropane hydrochloride] the D10 was at most 5 μm, the D50 was at most 10 μm and the D90 was at most 20 μm.
